Data on 24 compounds can be found in patent publication US9919998B2, “Antibacterial agents: Nα-aroyl-N-aryl-phenylalaninamides” (priority 2014, dated 2018).

Type in all cases: cell-based
Data set [1] has as its system Mycobacterium smegmatis ATCC 19420. Put plainly: Broth microdilution MIC, M. smegmatis. As to conditions: Mycolicibacterium smegmatis, ATCC19420, M. smegmatis ATCC 19420; read-out: MIC Mycobacterium smegmatis ATCC 19420. The source says:
MICs in Mycobacterium smegmatis ATCC 19420 and Mycobacterium smegmatis ATCC 19420 derivatives were quantified using broth microdilution assays as described [Clinical and Laboratory Standards Institute (CLSI/NCCLS) (2009) Methods for Dilution Antimicrobial Susceptibility Tests for Bacteria That Grow Aerobically; Approved Standard, Eighth Edition. CLIS Document M07-A8 (CLIS, Wayne Pa.)].

Data set [2] relates to Vero E6 ATCC CRL1586 cells. Put plainly: Mammalian-cell cytotoxicity, minimal cytotoxic concentration (CellTiter96). Here is the method: Minimal cytotoxic concentrations (MCCs) against mammalian cells in culture were determined using Vero E6 ATCC CRL1586 cells and the CellTiter96 assay kit (Promega, Inc.). […]
The test system of data set [3] is Mycobacterium tuberculosis H37Rv. Put plainly: Microplate Alamar Blue assay (MABA) MIC, M. tuberculosis. Particulars: read-out: MIC Mycobacterium tuberculosis H37Rv. The source says:
(§1) Minimal inhibitory concentrations (MICs) in Mycobacterium tuberculosis H37Rv and Mycobacterium avium ATCC 25291 were quantified using microplate Alamar Blue assays as described (MABA; [Collins, L. & Franzblau, S. (1997) Microplate Alamar Blue assay versus BACTEC 460 system for high-throughput screening of compounds against Mycobacterium tuberculosis and Mycobacterium avium. Antimicrob. Agents Chemother. 41, 1004-1009]).

Data set [4] relates to Mycobacterium avium ATCC 25291. Put plainly: Microplate Alamar Blue assay (MABA) MIC, M. avium. Particulars: ATCC25291, M. avium ATCC 25291.
Source text: as §1

In brackets after ≈: the same amount, converted by molar mass.

Turning to `O=C(NC(Cc1ccccc1)C(=O)Nc1cccc2c1CCCC2)c1cccs1` (stereo not drawn) [IX-86, N-(1-oxo-3-phenyl-1-((5,6,7,8-tetrahydronaphthalen-1-yl)amino)propan-2-yl)thiophene-2-carboxamide], the MIC in data set [1] is 0.78 µg/mL (≈ 1.93 µM); in data set [3] it was over 50 µg/mL; in data set [4], over 50 µg/mL. For the same compound, the “MCC mammalian cells Vero E6 ATCC CRL1586” value in data set [2] turned out to be 50 µg/mL.
Regarding `O=C(NC(Cc1ccccc1)C(=O)Nc1cccc2[nH]ccc12)c1ccccc1F` (stereo not drawn) [IX-91, N-(1-((1H-indol-4-yl)amino)-1-oxo-3-phenylpropan-2-yl)-2-fluorobenzamide], the MIC in data set [1] was 1.56 µg/mL (≈ 3.89 µM); in data set [3] it was 50 µg/mL (≈ 125 µM); in data set [4], 50 µg/mL (≈ 125 µM). Besides, in data set [2], the “MCC mammalian cells Vero E6 ATCC CRL1586” value came to 65 µg/mL.
Take `Cc1ccc(Cl)cc1NC(=O)C(Cc1ccc(O)cc1)NC(=O)c1cccs1` (stereo not drawn) [IX-94, N-(1-((5-chloro-2-methylphenyl)amino)-3-(4-hydroxyphenyl)-1-oxopropan-2-yl)thiophene-2-carboxamide]: the MIC is 0.78 µg/mL (≈ 1.88 µM) in data set [1], 3.12 µg/mL (≈ 7.53 µM) in data set [3] and 3.12 µg/mL (≈ 7.53 µM) in data set [4]. In addition, the “MCC mammalian cells Vero E6 ATCC CRL1586” value in data set [2] worked out at 58 µg/mL.
As for `O=C(NC(Cc1ccccc1)C(=O)Nc1cccc2cc[nH]c12)c1ccccc1Cl` (stereo not drawn) [IX-95, N-(1-((1H-indol-7-yl)amino)-1-oxo-3-phenylpropan-2-yl)-2-chlorobenzamide], the MIC in data set [1] amounted to 0.39 µg/mL (≈ 0.933 µM); in data set [3], 12.5 µg/mL (≈ 29.9 µM); in data set [4], 25 µg/mL (≈ 59.8 µM). Besides, the “MCC mammalian cells Vero E6 ATCC CRL1586” value in data set [2] amounted to 20 µg/mL.
For `O=C(NC(Cc1ccccc1)C(=O)Nc1cccc2cc[nH]c12)c1ccccc1F` (stereo not drawn) [IX-96, N-(1-((1H-indol-7-yl)amino)-1-oxo-3-phenylpropan-2-yl)-2-fluorobenzamide], the values for the MIC in data set [1], in data set [3] and in data set [4] were 0.78 µg/mL (≈ 1.94 µM), 12.5 µg/mL (≈ 31.1 µM) and 25 µg/mL (≈ 62.3 µM), respectively. Besides, the “MCC mammalian cells Vero E6 ATCC CRL1586” value in data set [2] turned out to be 44 µg/mL.
For the compound `Cc1ccccc1C(=O)NC(Cc1ccccc1)C(=O)Nc1cccc2cc[nH]c12` (stereo not drawn) [IX-97, N-(1-((1H-indol-7-yl)amino)-1-oxo-3-phenylpropan-2-yl)-2-methylbenzamide], the MIC stood at 0.39 µg/mL (≈ 0.981 µM) in data set [1], 6.25 µg/mL (≈ 15.7 µM) in data set [3] and 12.5 µg/mL (≈ 31.4 µM) in data set [4]. The “MCC mammalian cells Vero E6 ATCC CRL1586” value in data set [2] was 15 µg/mL.
Consider `O=C(NC(Cc1ccccc1)C(=O)Nc1cccc2c1OCO2)c1cccs1` (stereo not drawn) [IX-98, N-(1-(benzo[d][1,3]dioxol-4-ylamino)-1-oxo-3-phenylpropan-2-yl)thiophene-2-carboxamide], for which the MIC in data set [1] was determined as 0.195 µg/mL (≈ 0.494 µM); in data set [3] it was 6.25 µg/mL (≈ 15.8 µM); in data set [4] it was 3.12 µg/mL (≈ 7.92 µM). Also, in data set [2], the “MCC mammalian cells Vero E6 ATCC CRL1586” value was found to be 13 µg/mL.
For `O=C(NC(Cc1ccccc1)C(=O)Nc1cccc2c1OCO2)c1ccccc1F` (stereo not drawn) [IX-99, N-(1-(benzo[d][1,3]dioxol-4-ylamino)-1-oxo-3-phenylpropan-2-yl)-2-fluorobenzamide], the MIC in data set [1] stood at 0.195 µg/mL (≈ 0.48 µM); in data set [3], 3.12 µg/mL (≈ 7.69 µM); in data set [4] it was 6.25 µg/mL (≈ 15.4 µM). Further, the “MCC mammalian cells Vero E6 ATCC CRL1586” value in data set [2] was over 100 µg/mL.
`O=C(NC(Cc1ccccc1)C(=O)Nc1ccccc1OC(F)F)c1cccs1` (stereo not drawn) [IX-100, N-(1-((2-(difluoromethoxy)phenyl)amino)-1-oxo-3-phenylpropan-2-yl)thiophene-2-carboxamide]: the MIC in data set [1] turned out to be 0.39 µg/mL (≈ 0.936 µM); in data set [3], 6.25 µg/mL (≈ 15 µM); in data set [4], 6.25 µg/mL (≈ 15 µM). For the same compound, the “MCC mammalian cells Vero E6 ATCC CRL1586” value in data set [2] turned out to be 42 µg/mL.
On to `O=C(NC(Cc1ccccc1)C(=O)Nc1ccccc1OC(F)F)c1ccccc1F` (stereo not drawn) [IX-101, N-(1-((2-(difluoromethoxy)phenyl)amino)-1-oxo-3-phenylpropan-2-yl)-2-fluorobenzamide], for which the MIC was determined as 0.39 µg/mL (≈ 0.91 µM) in data set [1], 6.25 µg/mL (≈ 14.6 µM) in data set [3] and 6.25 µg/mL (≈ 14.6 µM) in data set [4]. The “MCC mammalian cells Vero E6 ATCC CRL1586” value in data set [2] was over 100 µg/mL.
For `Cc1ccc(Br)cc1NC(=O)C(Cc1ccc(O)cc1)NC(=O)c1ccccc1` (stereo not drawn) [IX-103, N-(1-((5-bromo-2-methylphenyl)amino)-3-(4-hydroxyphenyl)-1-oxopropan-2-yl)benzamide], the MIC amounted to 0.78 µg/mL (≈ 1.72 µM) in data set [1], 12.5 µg/mL (≈ 27.6 µM) in data set [3] and 12.5 µg/mL (≈ 27.6 µM) in data set [4]. Besides, in data set [2], the “MCC mammalian cells Vero E6 ATCC CRL1586” value came to 62 µg/mL.
On to `O=C(NC(Cc1ccccc1)C(=O)Nc1cccc2[nH]ccc12)c1cccs1` (stereo not drawn) [IX-104, N-(1-((1H-indol-4-yl)amino)-1-oxo-3-phenylpropan-2-yl)thiophene-2-carboxamide], for which the MIC in data set [1] turned out to be 0.39 µg/mL (≈ 1 µM); in data set [3], 25 µg/mL (≈ 64.2 µM); in data set [4] it was 50 µg/mL (≈ 128 µM). Moreover, the “MCC mammalian cells Vero E6 ATCC CRL1586” value in data set [2] amounted to 33 µg/mL.
As to `O=C(NC(Cc1ccccc1)C(=O)Nc1ccccc1N1CCCC1)c1cccs1` (stereo not drawn) [IX-105, N-(1-oxo-3-phenyl-1-((2-(pyrrolidin-1-yl)phenyl)amino)propan-2-yl)thiophene-2-carboxamide], the MIC came out at 0.78 µg/mL (≈ 1.86 µM) in data set [1], 6.25 µg/mL (≈ 14.9 µM) in data set [3] and 25 µg/mL (≈ 59.6 µM) in data set [4]. For the same compound, the “MCC mammalian cells Vero E6 ATCC CRL1586” value in data set [2] was over 100 µg/mL.
As to `COc1cccc(NC(=O)C(Cc2ccccc2)NC(=O)c2cccs2)c1C` (stereo not drawn) [IX-107, N-(1-((3-methoxy-2-methylphenyl)amino)-1-oxo-3-phenylpropan-2-yl)thiophene-2-carboxamide], the figures for the MIC in data set [1], in data set [3] and in data set [4] were 0.78 µg/mL (≈ 1.98 µM), over 50 µg/mL and 50 µg/mL (≈ 127 µM), respectively. Further, the “MCC mammalian cells Vero E6 ATCC CRL1586” value in data set [2] was over 100 µg/mL.
`COc1cccc(NC(=O)C(Cc2ccccc2)NC(=O)c2ccccc2F)c1C` (stereo not drawn) [IX-108, 2-fluoro-N-(1-((3-methoxy-2-methylphenyl)amino)-1-oxo-3-phenylpropan-2-yl)benzamide]: the MIC in data set [1] turned out to be 0.78 µg/mL (≈ 1.92 µM); in data set [3], 12.5 µg/mL (≈ 30.8 µM); in data set [4], 25 µg/mL (≈ 61.5 µM). For the same compound, the “MCC mammalian cells Vero E6 ATCC CRL1586” value in data set [2] is 80 µg/mL.
For the compound `Cc1ccccc1C(=O)NC(Cc1ccccc1)C(=O)Nc1cc(F)ccc1OCF` (stereo not drawn) [IX-111, N-(1-((5-fluoro-2-(fluoromethoxy)phenyl)amino)-1-oxo-3-phenyl-propan-2-yl)-2-methylbenzamide], the values for the minimum inhibitory concentration (MIC) in data set [1], in data set [3] and in data set [4] were 0.39 µg/mL (≈ 0.919 µM), 0.39 µg/mL (≈ 0.919 µM) and 0.78 µg/mL (≈ 1.84 µM), respectively. In addition, the “MCC mammalian cells Vero E6 ATCC CRL1586” value in data set [2] worked out at 100 µg/mL.
Turning to `O=C(NC(Cc1ccccc1)C(=O)Nc1ccccc1OC(F)F)c1ccccc1Cl` (stereo not drawn) [IX-119, 2-chloro-N-(1-((2-(difluoromethoxy)phenyl)amino)-1-oxo-3-phenylpropan-2-yl)benzamide], the MIC in data set [1] amounted to 0.39 µg/mL (≈ 0.877 µM); in data set [3], 3.12 µg/mL (≈ 7.02 µM); in data set [4], 12.5 µg/mL (≈ 28.1 µM). Moreover, the “MCC mammalian cells Vero E6 ATCC CRL1586” value in data set [2] was 5.6 µg/mL.
For `Cc1ccccc1C(=O)NC(Cc1ccccc1)C(=O)Nc1ccccc1OC(F)F` (stereo not drawn) [IX-120, N-(1-((2-(difluoromethoxy)phenyl)amino)-1-oxo-3-phenylpropan-2-yl)-2-methylbenzamide] the same measures were 0.19 µg/mL (≈ 0.448 µM), 3.12 µg/mL (≈ 7.36 µM), 3.12 µg/mL (≈ 7.36 µM) and over 100 µg/mL.
For `O=C(NC(Cc1ccccc1)C(=O)Nc1cccc2c1OC(F)(F)O2)c1ccccc1F` (stereo not drawn) [IX-122, N-(1-((2,2-difluorobenzo[d][1,3]dioxol-4-yl)amino)-1-oxo-3-phenyl-propan-2-yl)-2-fluorobenzamide] the same measures were 1.56 µg/mL (≈ 3.53 µM), over 50 µg/mL, over 50 µg/mL and 94 µg/mL.
For the compound `O=C(NC(Cc1ccccc1)C(=O)Nc1cccc2c1OC(F)(F)O2)c1cccs1` (stereo not drawn) [IX-124, N-(1-((2,2-difluorobenzo[d][1,3]dioxol-4-yl)amino)-1-oxo-3-phenyl-propan-2-yl)thiophene-2-carboxamide], the MIC in data set [1] is 0.78 µg/mL (≈ 1.81 µM); in data set [3], over 50 µg/mL; in data set [4] it was over 50 µg/mL. Further, the “MCC mammalian cells Vero E6 ATCC CRL1586” value in data set [2] worked out at 38 µg/mL.
In the case of `O=C(NC(Cc1ccccc1)C(=O)Nc1cccc2[nH]ncc12)c1ccccc1F` (stereo not drawn) [IX-128, N-(1-((1H-indazol-4-yl)amino)-1-oxo-3-phenylpropan-2-yl)-2-fluorobenzamide], the MIC in data set [1] was determined as 0.39 µg/mL (≈ 0.969 µM); in data set [3], 12.5 µg/mL (≈ 31.1 µM); in data set [4], 25 µg/mL (≈ 62.1 µM). Also, the “MCC mammalian cells Vero E6 ATCC CRL1586” value in data set [2] came to 58 µg/mL.
Consider `O=C(NC(Cc1ccccc1)C(=O)Nc1ccccc1N1CCSCC1)c1ccccc1` (stereo not drawn) [IX-149, N-(1-oxo-3-phenyl-1-((2-thiomorpholinophenyl)amino)propan-2-yl)-benzamide], for which the MIC is 0.095 µg/mL (≈ 0.213 µM) in data set [1], 3.12 µg/mL (≈ 7.01 µM) in data set [3] and over 50 µg/mL in data set [4]. Also, the “MCC mammalian cells Vero E6 ATCC CRL1586” value in data set [2] is over 100 µg/mL.
With `O=C(NC(Cc1ccccc1)C(=O)Nc1ccccc1N1CCNCC1)c1ccccc1` (stereo not drawn) [IX-150, N-(1-oxo-3-phenyl-1-((2-(piperazin-1-yl)phenyl)amino)propan-2-yl)-benzamide], the minimum inhibitory concentration (MIC) in data set [1] was 0.39 µg/mL (≈ 0.91 µM); in data set [3] it was 6.25 µg/mL (≈ 14.6 µM); in data set [4] it was 3.12 µg/mL (≈ 7.29 µM). For the same compound, in data set [2], the “MCC mammalian cells Vero E6 ATCC CRL1586” value amounted to 38 µg/mL.
For `CN1CCN(c2ccccc2NC(=O)C(Cc2ccccc2)NC(=O)c2ccccc2)CC1` (stereo not drawn) [IX-151, N-(1-((2-(4-methylpiperazin-1-yl)phenyl)amino)-1-oxo-3-phenyl-propan-2-yl)benzamide], the minimal inhibitory concentration (MIC) was 0.78 µg/mL (≈ 1.76 µM) in data set [1], 12.5 µg/mL (≈ 28.2 µM) in data set [3] and 12.5 µg/mL (≈ 28.2 µM) in data set [4]. Also, the “MCC mammalian cells Vero E6 ATCC CRL1586” value in data set [2] is 35 µg/mL.
